Experimental data published in US5990163A, “Selective modulation of processes mediated by retinoid X receptors, and compounds useful therefor” (The Salk Institute for Biological Studies, priority 1995, dated 1999).
“Also recorded” adds a separate entry of the source. Values belong to the compound of their own block, whether it stands above or below them.

Experiments:
hRXRα [1] = molecular target: T1, hRXRα (Homo sapiens, UniProt P19793); experiment: Cotransfection assay in Schneider cells, RXR expression plasmid and ADH-CRBPII-LUC luciferase reporter; assay type: cell-based; settings: for activation of RXR (transcription from the reporter construct), in words: Schneider cells, ADH-CRBPII-LUC
T1 sequence (P19793 1-462): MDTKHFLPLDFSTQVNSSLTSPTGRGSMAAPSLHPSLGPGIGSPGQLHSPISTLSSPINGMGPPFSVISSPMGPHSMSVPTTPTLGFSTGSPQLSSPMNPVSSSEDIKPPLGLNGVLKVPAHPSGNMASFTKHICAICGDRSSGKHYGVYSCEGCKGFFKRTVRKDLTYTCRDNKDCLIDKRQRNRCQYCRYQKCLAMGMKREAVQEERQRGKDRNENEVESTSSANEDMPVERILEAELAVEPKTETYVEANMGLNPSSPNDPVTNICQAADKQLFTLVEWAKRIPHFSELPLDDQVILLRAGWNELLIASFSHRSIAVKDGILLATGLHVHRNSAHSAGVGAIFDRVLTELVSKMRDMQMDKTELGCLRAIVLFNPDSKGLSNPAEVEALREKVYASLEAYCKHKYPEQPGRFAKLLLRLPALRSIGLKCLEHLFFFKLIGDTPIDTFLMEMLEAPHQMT
Procedure: Candidate ligands were initially tested in Schneider cells cotransfected with an RXR expression plasmid and a luciferase reporter plasmid containing an RXR specific response element.
Cell lysates were then assayed for luciferase activity, which is expressed as relative light units (RLU) and represents the mean of triplicate assays (±SEM) normalized to β-galactosidase as an internal control. […] After 24 hours, ligand was added to the transfected cells. Thirty six hours later, the cells were harvested and extracts prepared and assayed for enzyme activity as described by Heyman et al., supra, and Clayton, supra. Luciferase values were normalized for transfection and harvesting efficiency by measuring β-galactosidase activity, and the results reported as average relative light units (RLU) for at least two replicates.

GAL4-hRXRα = molecular target: T2, GAL4-hRXRα (Homo sapiens, UniProt P19793); experiment: Cotransfection with GAL4 chimeric receptor, TK-MH100×4-LUC reporter in CV-1 cells; assay type: cell-based; settings: 10^-5 M ligand
T2 construct: CMX plasmid, CV-1 cells, TK-MH100x4-LUC
T2 sequence (P19793 203-462): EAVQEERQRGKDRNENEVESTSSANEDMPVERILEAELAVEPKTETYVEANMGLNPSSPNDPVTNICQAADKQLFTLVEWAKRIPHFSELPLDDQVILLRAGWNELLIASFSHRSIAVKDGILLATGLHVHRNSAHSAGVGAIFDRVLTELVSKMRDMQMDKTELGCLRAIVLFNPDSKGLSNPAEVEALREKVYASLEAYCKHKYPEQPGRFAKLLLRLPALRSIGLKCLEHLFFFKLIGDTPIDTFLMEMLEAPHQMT
From the text: (§1) Thus, CV-1 cells were cotransfected with the expression plasmid CMX-GAL4-hRXRα, CMX-GAL4-hRARα, CMX-GAL4-RARβ or CMX-GAL4-RARγ and the reporter plasmid TK-MH100×4-LUC. The constructs consisted of the GAL4 DNA binding domain (amino acids 1-147; see Sadowski and Ptashne in Nucl. Acids Res. 17:7539 (1989)) ligated in frame to the ligand binding and C-terminal activation domains of hRARα (amino acids 203-462; see Giguere et al., in Nature 330:624 (1987), hRARβ (amino acids 178-448; see Brand et al., in Nature 332:850 (1988), RARγ (amino acids 187-454; see Ishikawa et al., in Mol. Endo. 4:837 (1990) and RXRα (amino acids 203-462; see Mangelsdorf et al., in Nature 345:224 (1990). These GAL4-receptor chimeras were then introduced into CMX expression vectors (see Umesono et al., in Cell 65:1255 (1991)). The GAL4-responsive reporter plasmid, TK-MH100×4-LUC, was constructed by inserting 4 copies of the yeast UASG enhancer (i.e., MH100; see Webster et al., in Cell 52:169 (1988)) into the luciferase reporter plasmid TK-LUC. CV-1 cells seeded into 48 well culture plates were co-transfected with 80 ng of the reporter plasmid TK-Mh100×4-LUC, 50 ng of CMX-βgal expression plasmid, and 80 ng of receptor expression plasmid (either CMX-GAL4 as a control, CMX-GAL4-hRARα, CMX-GAL4-hRARβ, CMX-GAL4-hRARγ or CMX-GAL4-hRXRα). […] Cotransfections, ligand addition and luciferase assays were performed as described in Example 3.
(§2) The above-described chimeric proteins can bind to a GAL4 upstream activation sequence (UASG) in the promoter of a luciferase reporter, but can only activate transcription in the presence of the hybrid receptor's ligand. The distinct advantage of using the GAL4-receptor system, instead of the wild-type receptors and response elements, is that the GAL4-hybrids provide a sensitive and effective means for assaying receptor/ligand interactions, even in the presence of the cell's endogenous wild-type receptors.

hRXRα [2] = molecular target: T1, hRXRα; experiment: Competitive ligand binding, competition for [3H]9cRA binding; settings: 40 nM [3H]9cRA, increasing concentrations of unlabelled compound
Procedure: Binding analysis was performed as described by Boehm et al., in J. Med. Chem. 37:2930-2941 (1994). Compounds used in these studies were prepared according to Wecksler and Norman (Anal. Biochem. 92:314-323 (1979).

[3] = previous studies (Quistad et al.); a major product is methoprene acid; cited from earlier work
mouse RXRβ = experiment: Transactivation dose response, CRBPII-LUC reporter in Schneider and CV-1 cells; assay type: cell-based; settings: Schneider cells and CV-1 cells
Procedure: (§3) Cell lysates were then assayed for luciferase activity, which is expressed as relative light units (RLU) and represents the mean of triplicate assays (±SEM) normalized to β-galactosidase as an internal control. Thus, Schneider cells in 6-well culture plates were co-transfected with 0.5 μg ADH-CRBPII-LUC, 0.5 μg A5C-βgal and 1 μg of receptor plasmid (either A5C-mRXRα, A5C-mRXRβ, A5C-mRXRγ or A5C-hRXRα) by the CaPO4 precipitation method, as described by Heyman et al., in Cell 68:397 (1992) and Clayton in Aspects of Terpenoid Chemistry and Biology, T. W. Goodwin, ed. (Academic Press, London) pp. 1-23 (1971). After 24 hours, ligand was added to the transfected cells. Thirty six hours later, the cells were harvested and extracts prepared and assayed for enzyme activity as described by Heyman et al., supra, and Clayton, supra. Luciferase values were normalized for transfection and harvesting efficiency by measuring β-galactosidase activity, and the results reported as average relative light units (RLU) for at least two replicates.
(§4) To further test the ability of methoprene acid to function as an RXR ligand, the transactivation properties of methoprene on all three RXR subtypes was investigated. FIG. 3 presents the dose responses of the three RXR subtypes to methoprene acid in insect Schneider cells (FIG. 3A), or mammalian CV-1 cells (FIG. 3B) cotransfected with expression plasmids for mouse RXRα, RXRβ, or RXRγ and the reporter plasmid ADH-CRBPII-LUC (for Schneider cells) or TK-CRBPII-LUC (for CV-1 cells).
(§5) Experiments in Schneider cells were conducted as described in Example 1. Experiments in CV-1 cells were conducted as follows. CV-1 cells were seeded into 48-well sulture dishes and co-transfected with 50 ng of TK-CRBPII-LUC reporter plasmid, 50 ng of CMX-βgal expression plasmid, and 25 ng of expression plasmid for receptor (either CMX-mRXRα, CMX-mRXRβ or CMX-mRXRγ) by the CaPO4 precipitation method, as described by Heyman et al., supra and Clayton supra. […] Luciferase activity was determined as described by Unsworth et al., in Life Sciences 15:1649 (1974).

mouse RXRγ = experiment: as above; assay type: cell-based; settings: Schneider cells and CV-1 cells
Procedure: as §3, §4, §5

mouse RXRα = experiment: as above; assay type: cell-based; settings: Schneider cells and CV-1 cells
Procedure: as §3, §4, §5

RXR-alpha = experiment: Expression of genes under the control of regulatory elements of apolipoprotein AI; assay type: cell-based
GAL4-hRARα = molecular target: T3, GAL4-hRARα (Homo sapiens, UniProt P10276); experiment: Cotransfection with GAL4 chimeric receptor, TK-MH100×4-LUC reporter in CV-1 cells; assay type: cell-based; settings: 10^-5 M ligand
T3 construct: CMX plasmid, CV-1 cells, TK-MH100x4-LUC
T3 sequence (P10276 203-462): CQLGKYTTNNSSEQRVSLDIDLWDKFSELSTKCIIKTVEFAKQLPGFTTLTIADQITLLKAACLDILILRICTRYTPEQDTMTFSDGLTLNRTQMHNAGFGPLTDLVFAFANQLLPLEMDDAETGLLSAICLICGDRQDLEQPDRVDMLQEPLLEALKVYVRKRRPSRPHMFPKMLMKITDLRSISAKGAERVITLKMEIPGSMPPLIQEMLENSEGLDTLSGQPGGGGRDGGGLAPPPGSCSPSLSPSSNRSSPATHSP
From the text: as §1, §2

GAL4-hRARγ = molecular target: T4, GAL4-hRARγ (Homo sapiens, UniProt P13631); experiment: as above; assay type: cell-based; settings: 10^-5 M ligand
T4 construct: CMX plasmid, CV-1 cells, TK-MH100x4-LUC
T4 sequence (P13631 187-454): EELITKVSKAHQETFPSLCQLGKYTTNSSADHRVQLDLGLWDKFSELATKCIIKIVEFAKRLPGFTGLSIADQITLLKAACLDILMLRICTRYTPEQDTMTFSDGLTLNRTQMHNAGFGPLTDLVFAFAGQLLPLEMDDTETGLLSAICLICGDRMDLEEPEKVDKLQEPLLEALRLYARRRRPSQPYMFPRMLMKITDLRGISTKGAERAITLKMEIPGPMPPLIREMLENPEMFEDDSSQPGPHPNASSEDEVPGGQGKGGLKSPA
From the text: as §1, §2

GAL4-hRARβ = molecular target: T5, GAL4-hRARβ (Homo sapiens, UniProt P10826); experiment: as above; assay type: cell-based; settings: 10^-5 M ligand
T5 construct: CMX plasmid, CV-1 cells, TK-MH100x4-LUC
T5 sequence (P10826 185-455): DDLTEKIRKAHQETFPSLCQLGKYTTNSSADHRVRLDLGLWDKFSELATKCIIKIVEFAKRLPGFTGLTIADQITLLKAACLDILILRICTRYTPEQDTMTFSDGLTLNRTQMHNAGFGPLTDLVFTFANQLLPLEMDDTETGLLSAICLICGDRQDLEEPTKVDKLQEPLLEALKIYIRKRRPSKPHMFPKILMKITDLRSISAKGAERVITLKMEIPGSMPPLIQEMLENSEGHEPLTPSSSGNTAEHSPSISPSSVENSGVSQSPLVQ
From the text: as §1, §2

[4] = 36 h, read-out: induction of luciferase reporter above methanol control

- activation of RXR (transcription from the reporter construct), in words (hRXRα [1]): do not activate RXR
SMILES: CC(C)=CCC/C(C)=C/CC/C(C)=C/CO [farnesol, (2E,6E,10E)-3,7,11-trimethyl-2,6,10-dodecatrienol, reference compound]

SMILES: C/C(=C\c1ccc(C(=O)O)cc1)c1ccc2c(c1)C(C)(C)CCC2(C)C [TTNPB, (E)-4-[2-(5,6,7,8-tetrahydro-5,5,8,8-tetramethyl-2-napthalenyl)-1-propenyl]benzoic acid, reference compound]
- activation of transcription with GAL4-RXR, in words (GAL4-hRXRα): exclusive response

- activation of RXR (transcription from the reporter construct), in words (hRXRα [1]): do not activate RXR
SMILES: COC(=O)/C=C(\C)CC/C=C(\C)CCC1OC1(C)C (stereo not drawn) [JH III, methyl (2E,6E)-10,11-epoxy-3,7,11-trimethyl-2,6dodecadienoate, reference compound]

SMILES: COC(C)(C)CCCC(C)C/C=C/C(C)=C/C(=O)OC(C)C (stereo not drawn) [methoprene, isopropyl (2E,4E)-11-methoxy-3,7,11-trimethyl-2,4-dodecadienoate]
- competition for [3H]9cRA binding to RXRα, in words (hRXRα [2]): unable to displace 9cRA binding at any concentration; also recorded: unable to competitively bind RXR at any concentration
- metabolism within cells [3]: metabolized within cells to several products
- fold induction at 100 µM (hRXRα [1]; [4]): 80
- activation of RXR (transcription from the reporter construct), in words (hRXRα [1]): activate RXR

SMILES: COC(C)(C)CCCC(C)C/C=C/C(C)=C/C(=O)O (stereo not drawn) [methoprene acid]
- competition for [3H]9cRA binding to RXRα, in words (hRXRα [2]): competes well
- response of RXRβ (transactivation), in words (mouse RXRβ): responds only weakly
- response of RXRγ (transactivation), in words (mouse RXRγ): respond strongly
- response of RXRα (transactivation), in words (mouse RXRα): respond strongly
- fold induction at 10 µM (hRXRα [1]; [4]): 95
- effect of RXR-alpha in the presence of ligand on expression of genes under apolipoprotein AI regulatory elements (RXR-alpha): strong effect
- activation of transcription with GAL4-RARα, in words (GAL4-hRARα): specific for activation of only the GAL4-RXR
- activation of transcription with GAL4-RXR, in words (GAL4-hRXRα): specific for activation of only the GAL4-RXR
- activation of transcription with GAL4-RARγ, in words (GAL4-hRARγ): specific for activation of only the GAL4-RXR
- activation of transcription with GAL4-RARβ, in words (GAL4-hRARβ): specific for activation of only the GAL4-RXR

SMILES: CC1=C(/C=C/C(C)=C\C=C\C(C)=C\C(=O)O)C(C)(C)CCC1 [9cRA, 9-cis-retinoic acid, reference compound]
- activation of transcription with GAL4-RARα, in words (GAL4-hRARα): can activate transcription
- activation of transcription with GAL4-RARγ, in words (GAL4-hRARγ): can activate transcription
- activation of transcription with GAL4-RARβ, in words (GAL4-hRARβ): can activate transcription

SMILES: CCOC(=O)/C=C(C)/C=C/CC(C)CCCC(C)C (stereo not drawn) [hydroprene, ethyl (2E,4E)-3,7,11-trimethyl-2,4-dodecadienoate]
- competition for [3H]9cRA binding to RXRα, in words (hRXRα [2]): not
- activation of RXR (transcription from the reporter construct), in words (hRXRα [1]): activate RXR

SMILES: CC(/C=C/CC(C)CCCC(C)C)=C\C(=O)O (stereo not drawn) [hydroprene acid]
- competition for [3H]9cRA binding to RXRα, in words (hRXRα [2]): observed to bind RXR
- fold induction at 100 µM (hRXRα [1]; [4]): 81
